In patent US6790848B2, “4-piperazinylindole derivatives with 5-HT6 receptor affinity” (Syntex (U.S.A.) LLC, priority 2001, dated 2004) one finds melting point data, which are given here for 7 molecules.

Where a name gives a salt, the structure may show the parent alone.

As a reminder, the melting point is the temperature of the solid-liquid transition. Molecule `O=S(=O)(c1ccc(Cl)cc1)n1ccc2c(N3CCNCC3)cccc21` (as salt: trifluoroacetate) [1-(4-chloro-benzenesulfonyl)-4-piperazin-1-yl-1H-indole] showed a melting point of 193 to 194 °C.

Regarding `CS(=O)(=O)c1ccc(S(=O)(=O)n2ccc3c(N4CCNCC4)cccc32)cc1` (as salt: trifluoroacetate) [1-(4-methanesulfonyl-benzenesulfonyl)-4-piperazin-1-yl-1H-indole], the melting point is 234 to 235 °C (dec.).

With `CC(C)(C)c1ccc(S(=O)(=O)n2ccc3c(N4CCNCC4)cccc32)cc1` (as salt: trifluoroacetate) [1-(4-ter-butyl-benzenesulfonyl)-4-piperazin-1-yl-1H-indole], the melting point is 231 to 232 °C (dec.). The figure for `CC(C)CS(=O)(=O)c1cccc(S(=O)(=O)n2ccc3c(N4CCNCC4)cccc32)c1` (as salt: trifluoroacetate) [1-[3-(2-methyl-propane-1-sulfonyl)-benzenesulfonyl]-4-piperazin-1-yl-1H-indole] is 220 to 222 °C. As for `N#Cc1cccc(S(=O)(=O)n2ccc3c(N4CCNCC4)cccc32)c1` (as salt: trifluoroacetate) [3-(4-piperazin-1-yl-indole-1-sulfonyl)-benzonitrile], the melting point is 238 °C (dec.).

Regarding `O=S(=O)(c1cccs1)n1ccc2c(N3CCNCC3)cccc21` (as salt: trifluoroacetate) [4-piperazin-1-yl-1-(thiophene-2-sulfonyl)-1H-indole], the melting point lay within 208 to 209 °C. With `CCCS(=O)(=O)c1cccc(S(=O)(=O)n2ccc3c(N4CCNCC4)cccc32)c1` (as salt: trifluoroacetate) [4-piperazin-1-yl-1-[3-(propane-1-sulfonyl)-benzenesulfonyl]-1H-indole] the figure was 173 to 174 °C.
